The record followed here is ChEMBL document CHEMBL5579871, “Novel Papain-Like Protease Inhibitors for Treating Viral Infections, in particular, Coronavirus Infections” (ACS Med Chem Lett, 2024).

For this assay, the target named is Replicase polyprotein 1ab (Severe acute respiratory syndrome coronavirus 2, UniProt P0DTD1). As to the kind of experiment: Inhibition of SARS-CoV-2 papain-like protease using Z-RLRGG-AMC as fluorogenic substrate preincubated for 30 mins followed by substrate addition and measured after 60 mins by plate reader assay.
Take `Cc1ccc(N2CCN(C)CC2)cc1C(=O)N[C@H](C)c1cc(-c2cnn(C)c2)cc(-c2cc(Cl)cnc2N)c1`: the IC50 (commonly the point on the concentration scale where inhibition reaches its midpoint) came out at 3 nM.

`Cc1ccc(N2CCN(C)CC2)cc1C(=O)N[C@H](C)c1cc(-c2cnn(C)c2)cc(-c2cccs2)c1` displayed a 50% inhibitory concentration (IC50) of 4 nM.

`Cc1cc(CNCc2cscn2)ccc1C(=O)N[C@H](C)c1cc(-c2cnn(C)c2)cc(-c2ccns2)c1` gave an IC50 of 3 nM.

`Cc1ccc(NC(=O)[C@H]2CCCCN2)cc1C(=O)N[C@H](C)c1cc(-c2cnn(C)c2)cc(-c2cccs2)c1` showed a half-inhibitory concentration (IC50) of 4 nM.

`Cc1ccc(N2CCNCC2)cc1C(=O)N[C@H](C)c1cc(-c2cnn(C)c2)cc(-c2cc(Cl)cnc2N)c1` showed an IC50 of 4 nM.

As for `Cc1cc(C(=O)NCc2cscn2)ccc1C(=O)N[C@H](C)c1cc(-c2cnn(C)c2)cc(-c2ccns2)c1`, 3 nM corresponded to half-maximal inhibition (IC50).
